ChEMBL document CHEMBL1142168, “Prevalence and susceptibility testing of new species of pseudallescheria and scedosporium in a collection of clinical mold isolates” (2007)
≈ marks a conversion by molar mass, not a printed value.

Tests used:
[1] = Antifungal activity against Scedosporium aurantiacum bronchial aspirate isolate CNM-CM-4183 at 48 hrs; format: functional
[2] = Antifungal activity against Scedosporium aurantiacum sputum isolate CNM-CM-2631 at 48 hrs; format: functional
[3] = tested on: Scedosporium aurantiacum; assay: Antifungal activity against Scedosporium aurantiacum ear swab isolate CNM-CM-2846 at 48 hrs; format: functional
[4] = tested on: Scedosporium apiospermum; assay: Antifungal activity against Scedosporium apiospermum isolates at 48 hrs
[5] = tested on: Scedosporium aurantiacum; assay: Antifungal activity against Scedosporium aurantiacum corneal isolate CNM-CM-2923 at 48 hrs; format: functional; conditions: Cornea

Compound | MIC [1] [µg/mL] | MIC [2] [µg/mL] | MIC [3] [µg/mL] | MIC [4] [µg/mL] | MIC [5] [µg/mL]
C[C@@H]1[C@H](O)[C@@H](C)/C=C/C=C/C=C/C=C/C=C/C=C/C=C/[C@H](O[C@@H]2O[C@H](C)[C@@H](O)[C@H](N)[C@@H]2O)C[C@@H]2O[C@](O)(C[C@@H](O)C[C@@H](O)[C@H](O)CC[C@@H](O)C[C@@H](O)CC(=O)O[C@H]1C)C[C@H](O)[C@H]2C(=O)O [AMPHOTERICIN B] | 8 (≈ 8.66 µM) | 4 (≈ 4.33 µM) | 16 (≈ 17.3 µM) | 0.25 (≈ 0.271 µM) | 8 (≈ 8.66 µM)
CCC(C)n1ncn(-c2ccc(N3CCN(c4ccc(OCC5COC(Cn6cncn6)(c6ccc(Cl)cc6Cl)O5)cc4)CC3)cc2)c1=O (stereo not given) [ITRACONAZOLE] | 16 (≈ 22.7 µM) | 2 (≈ 2.83 µM) | 8 (≈ 11.3 µM) | 0.25 (≈ 0.354 µM) | 16 (≈ 22.7 µM)
C[C@@H](c1ncncc1F)[C@](O)(Cn1cncn1)c1ccc(F)cc1F [VORICONAZOLE] | 0.5 (≈ 1.43 µM) | 0.5 (≈ 1.43 µM) | 1 (≈ 2.86 µM) | 0.125 (≈ 0.358 µM) | 16 (≈ 45.8 µM)
